How the values were obtained:
[1] = target: T1, mouse DGAT1 (Mus musculus, UniProt Q9Z2A7); assay: DGAT1 inhibitory effect test (microsome fraction, [14C]-oleoyl-CoA, triglyceride radioactivity by TLC); type: biochemical; settings: 0.5 h; concentration of the test compound 0.1 μg/ml; mouse DGAT1 microsomes, 23° C., 30 minutes; read-out: Inhibitory ratio
T1 construct: made in house; host or cells: insect cells (High Five, Sf9, Sf21, etc.), baculovirus expression system (Invitrogen)
T1 sequence (Q9Z2A7 1-498): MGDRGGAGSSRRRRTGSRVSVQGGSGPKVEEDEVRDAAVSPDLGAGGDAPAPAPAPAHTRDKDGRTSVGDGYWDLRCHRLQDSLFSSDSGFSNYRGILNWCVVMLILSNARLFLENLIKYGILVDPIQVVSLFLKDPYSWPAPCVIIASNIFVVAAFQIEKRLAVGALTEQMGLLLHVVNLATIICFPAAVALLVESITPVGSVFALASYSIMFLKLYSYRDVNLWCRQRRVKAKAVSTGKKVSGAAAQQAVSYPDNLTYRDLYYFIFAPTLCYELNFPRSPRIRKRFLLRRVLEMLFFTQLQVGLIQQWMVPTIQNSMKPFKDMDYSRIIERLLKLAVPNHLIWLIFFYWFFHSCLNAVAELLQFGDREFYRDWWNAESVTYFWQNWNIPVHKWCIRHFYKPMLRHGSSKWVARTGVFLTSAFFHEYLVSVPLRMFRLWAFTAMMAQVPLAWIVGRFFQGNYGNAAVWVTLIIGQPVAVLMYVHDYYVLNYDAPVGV
Description: The cDNA which encodes mouse DGAT1 was cloned from a mouse cDNA library by polymerase chain reaction (hereinafter referred to as “PCR”) and introduced into an insect cell virus vector (baculovirus expression system, Invitrogen). After insect cells (High Five, Sf9, Sf21, etc., Invitrogen) were infected with the virus, the cells were collected in buffer A [0.1M sucrose, 50 mM KCl, 40 mM potassium phosphate (pH 7.4), 30 mM EDTA, 1% Protease inhibitor cocktail (SIGMA, P-8340)] and crushed with a Polytron homogenizer. The supernatant obtained by subjecting the homogenate to low speed centrifugal processing (10,000 ×g, 30 minutes) was further subjected to higher-speed centrifugal processing (100,000 ×g, 60 minutes) and the precipitate was resuspended in buffer A as the microsome fraction and used as DGAT1 enzyme. The DGAT1 enzyme was divided into small volumes and stored at −80° C.
(2) DGAT1 Inhibitory Effect Test
The reaction liquid of the following composition [175 mM Tris-HCl (pH 8.0), 8 mM MgCl2, 1 mg/ml BSA, 0.5 mM 1,2-dioleoyl-sn-glycerol (EtOH solution of 10-fold concentration, 10% added), 30 μM[14C]-oleoyl-CoA (about 50 mCi/mmol), 0.5% triton X-100, DGAT1 enzyme (10 μg) obtained in Test Example 1(1), test compound or vehicle (DMSO/MeOH, 7:3 solution, 5% added), total volume 50 μl] was incubated at room temperature (23° C.) for 30 minutes. A reaction terminating solution (70 μl) consisting of isopropanol/1-heptane/water (80:20:2, v/v/v) was added to the reaction solution and stirred, and subsequently stirred with water (30 μl) and 1-heptane (100 μl). The 1-heptane layer (50 μl) was spotted onto a TLC plate and developed with a developing solvent consisting of 1-hexane/diethyl ether/acetic acid (85:15:1, v/v/v). Radioactivity of triglyceride fraction was quantified by BAS2000 bio image analyzer (Fuji Film) and the inhibitory effect of the test compounds was calculated by the following formula through comparison with control. Here, radioactivity at no reaction (0 minutes incubation) was assumed as background. Inhibitory ratio=100−[(Radioactivity when test compound was added)−(Background)]/[(Radioactivity by control)−(Background)]×100

| Compound | inhibition at 0.1 µg/mL [1] | melting point |
| --- | --- | --- |
| COc1ccc(F)cc1NC(=O)Nc1ccc(N2CCN(C(=O)Nc3c(Cl)cccc3Cl)CC2)cc1 [Example 101, 4-{4-[3-(5-fluoro-2-methoxy-phenyl)-ureido]-phenyl}-piperazine-1-carboxylic acid (2,6-dichloro-phenyl)-amide] | ≥ 50% | 235 to 237 °C |
| COc1ccc(C)cc1NC(=O)Nc1ccc(N2CCN(C(=O)Nc3ccccc3C)CC2)cc1 [Example 54, 4-{4-[3-(2-methoxy-5-methyl-phenyl)-ureido]-phenyl}-piperazine-1-carboxylic acid o-tolylamide] | ≥ 50% | 209 to 211 °C |
| CCc1ccccc1NC(=O)N1CCN(c2ccc(NC(=O)Nc3cc(C)ccc3OC)cc2)CC1 [Example 58, 4-{4-[3-(2-methoxy-5-methyl-phenyl)-ureido]-phenyl}-piperazine-1-carboxylic acid (2-ethyl-phenyl)-amide] | ≥ 50% | 220 to 221 °C |
| COc1ccc(C)cc1NC(=O)Nc1ccc(N2CCN(C(=O)Nc3c(F)cccc3F)CC2)nc1 [Example 152, 4-{5-[3-(2-methoxy-5-methyl-phenyl)-ureido]-pyridin-2-yl}-piperazine-1-carboxylic acid (2,6-difluoro-phenyl)-amide] | ≥ 50% | 237 to 239 °C |
| Cc1ccc(Cl)cc1NC(=O)Nc1ccc(N2CCN(C(=O)OC(C)(C)C)CC2)cc1 [Example 35, 4-{4-[3-(5-chloro-2-methyl-phenyl)-ureido]-phenyl}-piperazine-1-carboxylic acid tert-butyl ester] | ≥ 50% | 200 °C |
| CCOc1ccc(Cl)cc1NC(=O)Nc1ccc(N2CCN(C(=O)Nc3c(C)cccc3Cl)CC2)cc1 [Example 103, 4-{4-[3-(5-chloro-2-ethoxy-phenyl)-ureido]-phenyl}-piperazine-1-carboxylic acid (2-chloro-6-methyl-phenyl)-amide] | ≥ 50% | 159 to 161 °C |
| CCOP(=O)(Cc1ccc(NC(=O)N2CCN(c3ccc(NC(=O)Nc4cc(C)ccc4OC)cc3)CC2)c(C)c1)OCC [Example 390, {4-[(4-{4-[3-(2-methoxy-5-methyl-phenyl)-ureido]-phenyl}-piperazine-1-carbonyl)-amino]-3-methyl-benzyl}-phosphonic acid diethyl ester] | ≥ 50% | – |
| COc1ccc(C)cc1NC(=O)Nc1ccc(N2CCN(c3ncccn3)CC2)cc1 [Example 193, 1-(2-methoxy-5-methyl-phenyl)-3-[4-(4-pyrimidin-2-yl-piperazin-1-yl)-phenyl]-urea] | – | 220 to 221 °C |
| COc1ccc(C)cc1NC(=O)Nc1ccc(N2CCN(C(=O)Nc3c(F)cccc3F)CC2)cc1 [Example 55, 4-{4-[3-(2-methoxy-5-methyl-phenyl)-ureido]-phenyl}-piperazine-1-carboxylic acid (2,6-difluoro-phenyl)-amide] | – | 224 °C |
| CC(C)(C)OC(=O)N1CCN(c2ccc(NC(=O)Nc3cc(C(F)(F)F)ccc3F)cc2)CC1 [Example 27, 4-{4-[3-(2-fluoro-5-trifluoromethyl-phenyl)-ureido]-phenyl}-piperazine-1-carboxylic acid tert-butyl ester] | – | 241 °C |
| Cc1ccc(F)cc1NC(=O)Nc1ccc(N2CCN(C(=O)OC(C)(C)C)CC2)cc1 [Example 36, 4-{4-[3-(5-fluoro-2-methyl-phenyl)-ureido]-phenyl}-piperazine-1-carboxylic acid tert-butyl ester] | – | 206 to 208 °C |
| COc1ccc(Cl)cc1NC(=O)Nc1ccc(N2CCN(C(=O)OC(C)(C)C)CC2)cc1 [Example 1, 4-{4-[3-(5-chloro-2-methoxy-phenyl)-ureido]-phenyl}-piperazine-1-carboxylic acid tert-butyl ester] | – | 205 °C |
| COc1ccc(C)cc1NC(=O)Nc1ccc(N2CCN(C(=O)Nc3ccc(Br)cc3C)CC2)cc1 [Example 70, 4-{4-[3-(2-methoxy-5-methyl-phenyl)-ureido]-phenyl}-piperazine-1-carboxylic acid (4-bromo-2-methyl-phenyl)-amide] | – | 191 to 193 °C |
| CC(C)(C)OC(=O)N1CCN(c2ccc(NC(=O)Nc3cc(C(F)(F)F)ccc3Cl)cc2)CC1 [Example 28, 4-{4-[3-(2-chloro-5-trifluoromethyl-phenyl)-ureido]-phenyl}-piperazine-1-carboxylic acid tert-butyl ester] | – | 221 to 223 °C |

The next lines start with the values.

| inhibition at 0.1 µg/mL [1] | melting point | Compound |
| --- | --- | --- |
| ≥ 50% | 214 to 215 °C | COc1cccc(NC(=O)Nc2ccc(N3CCN(C(=O)Nc4ccc(OCCO)cc4C(F)(F)F)CC3)cc2)c1 [Example 214, 4-{4-[3-(3-methoxy-phenyl)-ureido]-phenyl}-piperazine-1-carboxylic acid [4-(2-hydroxy-ethoxy)-2-trifluoromethyl-phenyl]-amide] |
| ≥ 50% | 127 to 129 °C | O=C(Nc1ccc(N2CCN(C(=O)Nc3ccc(OCCO)cc3C(F)(F)F)CC2)cc1)Nc1cccc2c1OCCO2 [Example 244, 4-{4-[3-(2,3-dihydro-1,4-benzodioxin-5-yl)-ureido]-phenyl}-piperazine-1-carboxylic acid [4-(2-hydroxy-ethoxy)-2-trifluoromethyl-phenyl]-amide] |
| ≥ 50% | 112 to 114 °C | O=C(Nc1ccc(N2CCN(C(=O)Nc3ccc(OCCO)cc3C(F)(F)F)CC2)cc1)Nc1ccccc1OC(F)(F)F [Example 240, 4-{4-[3-(2-trifluoromethoxy-phenyl)-ureido]-phenyl}-piperazine-1-carboxylic acid [4-(2-hydroxy-ethoxy)-2-trifluoromethyl-phenyl]-amide] |
| ≥ 50% | 207 to 209 °C | COc1ccccc1NC(=O)Nc1ccc(N2CCN(C(=O)Nc3ncccc3C)CC2)cc1 [Example 309, 4-{4-[3-(2-methoxy-phenyl)-ureido]-phenyl}-piperazine-1-carboxylic acid (3-methyl-pyridin-2-yl)-amide] |
| ≥ 50% | 212 to 214 °C | O=C(Nc1ccc(N2CCN(C(=O)Nc3ccc(OCCO)cc3C(F)(F)F)CC2)cc1)Nc1ccc2c(c1)CCO2 [Example 243, 4-{4-[3-(2,3-dihydro-benzofuran-5-yl)-ureido]-phenyl}-piperazine-1-carboxylic acid [4-(2-hydroxy-ethoxy)-2-trifluoromethyl-phenyl]-amide] |
| ≥ 50% | 146 to 148 °C | COc1ccc(C)cc1NC(=O)Nc1ccc(N2CCN(C(=O)Oc3c(C)cccc3Cl)CC2)cc1 [Example 197, 4-{4-[3-(2-methoxy-5-methyl-phenyl)-ureido]-phenyl}-piperazine-1-carboxylic acid 2-chloro-6-methyl-phenyl ester] |
| ≥ 50% | 206 to 208 °C | COc1ccc(F)cc1NC(=O)Nc1ccc(N2CCN(C(=O)Nc3ncccc3C)CC2)cc1 [Example 296, 4-{4-[3-(5-fluoro-2-methoxy-phenyl)-ureido]-phenyl}-piperazine-1-carboxylic acid (3-methyl-pyridin-2-yl)-amide] |
| ≥ 50% | 184 to 185 °C | Cc1nc(NC(=O)Nc2ccc(N3CCN(C(=O)Nc4ccc(OCCO)cc4Cl)CC3)nc2)sc1C [Example 271, 4-{5-[3-(4,5-dimethyl-thiazol-2-yl)-ureido]-pyridin-2-yl}-piperazine-1-carboxylic acid [2-chloro-4-(2-hydroxy-ethoxy)-phenyl]-amide] |
| ≥ 50% | – | COc1ccc(C)cc1NC(=O)Nc1ccc2c(c1)CCN(C(=O)Nc1ncccc1C)C2 [Example 297, 6-[3-(2-methoxy-5-methyl-phenyl)-ureido]-3,4-dihydro-1H-isoquinoline-2-carboxylic acid (3-methyl-pyridin-2-yl)-amide] |

Reference: patent US20070249620A1, “Urea Derivative” (priority 2004, published 2007)
